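Test compounds were applied to cells in 96-well plates for 48 hours at 5 doses. GI50 = concentration required for 50% inhibition of growth.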 Activity calls are given as the source filed them. Cut-off read from the data, not from the text of the source: active = GI50 up to about 1.1 µM and inactive = higher.
Experiments:
Test in all cases: NCI tumour cell line growth inhibition, 48 h
SK-MEL-2 = tested on: SK-MEL-2
LXFL 529 = tested on: LXFL 529
HOP-62 = tested on: HOP-62
HCT-15 = tested on: HCT-15
KM12 = tested on: KM12
U-251 = tested on: U-251
SK-OV-3 = tested on: SK-OV-3
UACC-62 = tested on: UACC-62
M14 = tested on: M14
UACC-257 = tested on: UACC-257
NCI-H522 = tested on: NCI-H522
DMS-273 = tested on: DMS-273
MOLT-4 = tested on: MOLT-4
SF-295 = tested on: SF-295
KM-20L2 = tested on: KM-20L2
RXF 393 = tested on: RXF 393
OVCAR-8 = tested on: OVCAR-8
CCRF-CEM = tested on: CCRF-CEM
SF-539 = tested on: SF-539
NCI-H23 = tested on: NCI-H23
HCT-116 = tested on: HCT-116
NCI-H226 = tested on: NCI-H226
IGROV-1 = tested on: IGROV-1
K562 = tested on: K562
M19-MEL = tested on: M19-MEL
HT-29 = tested on: HT-29
SNB-19 = tested on: SNB-19
Malme-3M = tested on: Malme-3M
SF-268 = tested on: SF-268
SN12C = tested on: SN12C
XF498 = tested on: XF498
EKVX = tested on: EKVX
TK-10 = tested on: TK-10
786-0 = tested on: 786-0
A549 = tested on: A549
SNB-78 = tested on: SNB-78
HL-60 = tested on: HL-60
HCC 2998 = tested on: HCC 2998
NCI-H460 = tested on: NCI-H460
LOX IMVI = tested on: LOX IMVI
SR = tested on: SR
SNB-75 = tested on: SNB-75
COLO 205 = tested on: COLO 205
DLD-1 = tested on: DLD-1
SW-620 = tested on: SW-620
UO-31 = tested on: UO-31
OVCAR-3 = tested on: OVCAR-3
SK-MEL-28 = tested on: SK-MEL-28
ACHN = tested on: ACHN
SK-MEL-5 = tested on: SK-MEL-5
OVCAR-4 = tested on: OVCAR-4
RPMI-8226 = tested on: RPMI-8226
DMS-114 = tested on: DMS-114
HOP-92 = tested on: HOP-92
OVCAR-5 = tested on: OVCAR-5
A498 = tested on: A498
HOP-18 = tested on: HOP-18
CAKI-1 = tested on: CAKI-1

Cc1nc2c(n1CCN(C)C)C(=O)c1ccccc1C2=O
GI50 (SK-MEL-2): 12.2 µM (inactive) | GI50 (LXFL 529): 17.9 µM (inactive) | GI50 (HOP-62): 26.9 µM (inactive) | GI50 (HCT-15): 12.8 µM | GI50 (KM12): 15.2 µM (inactive) | GI50 (U-251): 14.5 µM (inactive) | GI50 (SK-OV-3): 45.8 µM (inactive) | GI50 (UACC-62): 11.9 µM (inactive) | GI50 (M14): 11.8 µM (inactive) | GI50 (UACC-257): 14 µM (inactive) | GI50 (NCI-H522): 5.38 µM (inactive) | GI50 (DMS-273): 13.5 µM (inactive) | GI50 (MOLT-4): 19.7 µM (inactive) | GI50 (SF-295): 15.7 µM (inactive) | GI50 (KM-20L2): 6.31 µM (inactive) | GI50 (RXF 393): 19.4 µM (inactive) | GI50 (OVCAR-8): 17.2 µM (inactive) | GI50 (CCRF-CEM): 17.7 µM (inactive) | GI50 (SF-539): 19.1 µM (inactive) | GI50 (NCI-H23): 12.1 µM (inactive) | GI50 (HCT-116): 14.5 µM (inactive) | GI50 (NCI-H226): 31.6 µM (inactive) | GI50 (IGROV-1): 13.4 µM (inactive) | GI50 (K562): 18.8 µM (inactive) | GI50 (M19-MEL): 2.02 µM (inactive) | GI50 (HT-29): 10.4 µM (inactive) | GI50 (SNB-19): 27.7 µM (inactive) | GI50 (Malme-3M): 2.84 µM (inactive) | GI50 (SF-268): 22 µM (inactive) | GI50 (SN12C): 16.6 µM (inactive) | GI50 (XF498): 18.3 µM (inactive) | GI50 (EKVX): 17.9 µM (inactive) | GI50 (TK-10): 38.8 µM (inactive) | GI50 (786-0): 28 µM (inactive) | GI50 (A549): 18.8 µM (inactive) | GI50 (SNB-78): 24.7 µM (inactive) | GI50 (HL-60): 5.3 µM (inactive) | GI50 (HCC 2998): 19.7 µM (inactive) | GI50 (NCI-H460): 9.84 µM (inactive) | GI50 (LOX IMVI): 14.9 µM (inactive) | GI50 (SR): 11.7 µM (inactive) | GI50 (SNB-75): 33.1 µM (inactive) | GI50 (COLO 205): 4.47 µM (inactive) | GI50 (DLD-1): 13.5 µM (inactive) | GI50 (SW-620): 15.2 µM (inactive) | GI50 (UO-31): 21 µM (inactive) | GI50 (OVCAR-3): 7.03 µM (inactive) | GI50 (SK-MEL-28): 53.6 µM (inactive) | GI50 (ACHN): 14.8 µM (inactive) | GI50 (SK-MEL-5): 7.45 µM (inactive) | GI50 (OVCAR-4): 15.6 µM (inactive)

Clc1ccc(C[P+](c2ccccc2)(c2ccccc2)c2ccccc2)c(Cl)c1
GI50 (RPMI-8226): 0.463 µM (active) | GI50 (SK-MEL-2): 2.18 µM (inactive) | GI50 (LXFL 529): 1.67 µM (inactive) | GI50 (HOP-62): 2.79 µM (inactive) | GI50 (HCT-15): 24 µM | GI50 (KM12): 1.69 µM (inactive) | GI50 (U-251): 2.49 µM (inactive) | GI50 (SK-OV-3): 3.75 µM (inactive) | GI50 (DMS-114): 1.52 µM (inactive) | GI50 (UACC-62): 2.4 µM (inactive) | GI50 (M14): 3.18 µM (inactive) | GI50 (UACC-257): 1.04 µM (active) | GI50 (NCI-H522): 1.67 µM (inactive) | GI50 (DMS-273): 1.93 µM (inactive) | GI50 (MOLT-4): 3.3 µM (inactive) | GI50 (SF-295): 3.08 µM (inactive) | GI50 (KM-20L2): 2.61 µM (inactive) | GI50 (RXF 393): 2.7 µM (inactive) | GI50 (OVCAR-8): 2.75 µM (inactive) | GI50 (CCRF-CEM): 2.99 µM (inactive) | GI50 (SF-539): 3.06 µM (inactive) | GI50 (NCI-H23): 2.89 µM (inactive) | GI50 (HCT-116): 1.63 µM (inactive) | GI50 (NCI-H226): 2.34 µM (inactive) | GI50 (IGROV-1): 1.87 µM (inactive) | GI50 (M19-MEL): 1.88 µM (inactive) | GI50 (HT-29): 1.66 µM (inactive) | GI50 (HOP-92): 1.71 µM (inactive) | GI50 (SNB-19): 3.04 µM (inactive) | GI50 (Malme-3M): 3.87 µM (inactive) | GI50 (SF-268): 3.94 µM (inactive) | GI50 (SN12C): 2.7 µM (inactive) | GI50 (XF498): 1.61 µM (inactive) | GI50 (OVCAR-5): 2.37 µM (inactive) | GI50 (EKVX): 3.44 µM (inactive) | GI50 (TK-10): 6.52 µM (inactive) | GI50 (A549): 4.47 µM (inactive) | GI50 (SNB-78): 3.42 µM (inactive) | GI50 (HL-60): 0.8 µM (active) | GI50 (HCC 2998): 3.47 µM (inactive) | GI50 (NCI-H460): 2.4 µM (inactive) | GI50 (LOX IMVI): 3.28 µM (inactive) | GI50 (A498): 4.61 µM (inactive) | GI50 (SR): 1.89 µM (inactive) | GI50 (SNB-75): 2.77 µM (inactive) | GI50 (COLO 205): 1.16 µM (inactive) | GI50 (SW-620): 2.94 µM (inactive) | GI50 (OVCAR-3): 2.58 µM (inactive) | GI50 (SK-MEL-28): 5.98 µM (inactive) | GI50 (ACHN): 10 µM (inactive) | GI50 (SK-MEL-5): 1.38 µM (inactive) | GI50 (OVCAR-4): 4.04 µM (inactive)

COc1cccc(NC(=O)CC(=O)N2N=C(N3c4ccccc4Sc4ccccc43)CC2c2ccccc2)c1 (stereo not given)
GI50 (RPMI-8226): > 100 µM (inactive) | GI50 (LXFL 529): > 100 µM (inactive) | GI50 (HOP-62): > 100 µM (inactive) | GI50 (HCT-15): > 100 µM | GI50 (KM12): > 100 µM (inactive) | GI50 (U-251): > 100 µM (inactive) | GI50 (SK-OV-3): > 100 µM (inactive) | GI50 (DMS-114): > 100 µM (inactive) | GI50 (HOP-18): 9.48 µM (inactive) | GI50 (UACC-62): > 100 µM (inactive) | GI50 (CAKI-1): > 100 µM (inactive) | GI50 (M14): > 100 µM (inactive) | GI50 (UACC-257): > 100 µM (inactive) | GI50 (MOLT-4): > 100 µM (inactive) | GI50 (SF-295): > 100 µM (inactive) | GI50 (KM-20L2): > 100 µM (inactive) | GI50 (RXF 393): > 100 µM (inactive) | GI50 (OVCAR-8): > 100 µM (inactive) | GI50 (SF-539): > 100 µM (inactive) | GI50 (NCI-H23): > 100 µM (inactive) | GI50 (HCT-116): > 100 µM (inactive) | GI50 (NCI-H226): > 100 µM (inactive) | GI50 (IGROV-1): > 100 µM (inactive) | GI50 (M19-MEL): > 100 µM (inactive) | GI50 (HT-29): > 100 µM (inactive) | GI50 (HOP-92): > 100 µM (inactive) | GI50 (SNB-19): > 100 µM (inactive) | GI50 (Malme-3M): > 100 µM (inactive) | GI50 (SF-268): > 100 µM (inactive) | GI50 (SN12C): > 100 µM (inactive) | GI50 (XF498): > 100 µM (inactive) | GI50 (OVCAR-5): > 100 µM (inactive) | GI50 (EKVX): > 100 µM (inactive) | GI50 (TK-10): > 100 µM (inactive) | GI50 (786-0): > 100 µM (inactive) | GI50 (A549): > 100 µM (inactive) | GI50 (SNB-78): > 100 µM (inactive) | GI50 (HCC 2998): > 100 µM (inactive) | GI50 (NCI-H460): > 100 µM (inactive) | GI50 (LOX IMVI): > 100 µM (inactive) | GI50 (A498): > 100 µM (inactive) | GI50 (SR): > 100 µM (inactive) | GI50 (SNB-75): > 100 µM (inactive) | GI50 (COLO 205): > 100 µM (inactive) | GI50 (DLD-1): > 100 µM (inactive) | GI50 (SW-620): > 100 µM (inactive) | GI50 (UO-31): > 100 µM (inactive) | GI50 (OVCAR-3): > 100 µM (inactive) | GI50 (SK-MEL-28): > 100 µM (inactive) | GI50 (ACHN): > 100 µM (inactive) | GI50 (SK-MEL-5): > 100 µM (inactive) | GI50 (OVCAR-4): > 100 µM (inactive)
